According to ChEMBL document CHEMBL3886248, “Selective androgen receptor modulators” (2015):

These compounds were tested against T1, Androgen receptor (Rattus norvegicus, UniProt P15207) (assay: The assay was performed as specified by the manufacturer (Invitrogen, Madison, Wis.). Briefly, 1 ul of 10 mM compound was added to 500 ul of AR screening buffer in a 1.5 ml eppendorf tube to make a 2x10E-5M stock. 10-fold serial dilutions of the test compounds were prepared ranging in concentration from 10E-5M to 10E-12M. Each dilution was added in triplicate to a black 384-microtiter plate. The test compounds will be diluted 2-fold in the final reaction. 2x AR-Fluormone complex was prepared with 2 nM Flourmone AL Green and 30 nM AR. 25 ul of 2x complex was aliquoted to each reaction well, such that the final reaction volume was 50 ul per well.).
T1 sequence (P15207 whole entry): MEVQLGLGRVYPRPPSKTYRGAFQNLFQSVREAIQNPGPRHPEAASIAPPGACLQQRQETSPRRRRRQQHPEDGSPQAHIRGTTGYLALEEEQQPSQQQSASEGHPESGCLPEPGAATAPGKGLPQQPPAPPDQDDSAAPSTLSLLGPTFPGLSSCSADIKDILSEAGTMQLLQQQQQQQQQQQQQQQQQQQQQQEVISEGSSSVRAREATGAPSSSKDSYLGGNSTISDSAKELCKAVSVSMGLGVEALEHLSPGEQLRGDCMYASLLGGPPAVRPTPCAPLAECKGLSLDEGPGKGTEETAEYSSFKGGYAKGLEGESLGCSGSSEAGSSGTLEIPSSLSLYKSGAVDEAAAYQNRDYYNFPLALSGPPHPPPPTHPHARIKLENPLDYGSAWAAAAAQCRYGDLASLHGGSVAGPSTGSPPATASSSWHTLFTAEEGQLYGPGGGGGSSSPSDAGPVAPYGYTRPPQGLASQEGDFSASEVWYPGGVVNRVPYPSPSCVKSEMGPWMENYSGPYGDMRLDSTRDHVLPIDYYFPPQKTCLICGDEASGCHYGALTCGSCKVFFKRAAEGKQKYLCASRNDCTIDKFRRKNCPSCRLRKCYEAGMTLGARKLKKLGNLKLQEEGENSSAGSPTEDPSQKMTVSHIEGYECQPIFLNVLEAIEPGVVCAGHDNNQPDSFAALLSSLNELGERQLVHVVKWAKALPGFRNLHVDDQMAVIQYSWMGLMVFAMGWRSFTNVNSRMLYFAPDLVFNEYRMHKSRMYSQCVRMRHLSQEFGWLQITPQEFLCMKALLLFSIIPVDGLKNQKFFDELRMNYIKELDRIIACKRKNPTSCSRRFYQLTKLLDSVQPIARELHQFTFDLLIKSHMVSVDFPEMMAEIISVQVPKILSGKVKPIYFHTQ

SMILES	IC50
Cc1c(N2C(=O)OC[C@@H]2[C@@H](O)C(F)(F)F)ccc(C#N)c1C(F)(F)F	> 1000 nM
C[C@@H]1OC(=O)N(c2ccc(C#N)c(C(F)(F)F)c2)[C@H]1[C@@H](O)C(F)(F)F	72 nM
C[C@@H]1OC(=O)N(c2ccc(C#N)c(C(F)(F)F)c2)[C@H]1[C@H](O)C(F)(F)F	4 nM
